Earlier results as cited in PMC12181400, “Leveraging viral genome sequences and machine learning models for identification of potentially selective antiviral agents” (Communications Chemistry, 2025).
Where a name gives a salt, the structure may show the parent alone. Read-outs that look alike come from different tables or passages of the source. Peptide text beside a SMILES is read from it.

Columns and labels:
Conditions in all cases: cited from earlier work
[1] = test system: cell viability (tox21-ar-mda-kb2-luc-antagonist-p2)
[2] = test system: cell viability (tox21-car-agonist-p1)
[3] = test system: cell viability (tox21-are-bla-p1)
[4] = test system: cell viability (tox21-ap1-agonist-p1)
[5] = test system: cell viability (tox21-car-antagonist-p1)
[6] = test system: cell viability (tox21-ar-mda-kb2-luc-agonist-p3)
[7] = curve rank −9 to 9, 0 = inactive, ref NCATS Tox21 public data browser

SMILES | tox21-ar-mda-kb2-luc-antagonist-p2-viability (curve rank) [1] | tox21-car-agonist-p1-viability (curve rank) [2] | tox21-are-bla-p1-viability (curve rank) [3] | tox21-ap1-agonist-p1-viability (curve rank) [4] | tox21-car-antagonist-p1-viability (curve rank) [5] | tox21-ar-mda-kb2-luc-agonist-p3-viability (curve rank) [6] | tox21-ar-mda-kb2-luc-antagonist-p2-viability (curve rank) [1, 7] | tox21-car-agonist-p1-viability (curve rank) [2, 7] | tox21-are-bla-p1-viability (curve rank) [3, 7] | tox21-ap1-agonist-p1-viability (curve rank) [4, 7] | tox21-car-antagonist-p1-viability (curve rank) [5, 7] | tox21-ar-mda-kb2-luc-agonist-p3-viability (curve rank) [6, 7]
Cc1ccc(S(=O)(=O)NC(=O)NN2CC3CCCC3C2)cc1 (stereo not drawn) [Gliclazide] | 0 | 0 | 0 | 0 | 0 | 0 | – | – | – | – | – | –
Cc1ncc([N+](=O)[O-])n1CC(C)O (stereo not drawn) [Secnidazole] | – | – | – | – | – | – | 0 | 0 | 0 | 0 | 0 | 0
NS(=O)(=O)c1cc2c(cc1Cl)NC(C1CC3C=CC1C3)NS2(=O)=O (stereo not drawn) [Cyclothiazide] | – | – | – | – | – | – | 0 | 0 | 0 | 0 | 0 | 0
OC[C@H]1O[C@@H](Oc2ccc(O)cc2)[C@H](O)[C@@H](O)[C@@H]1O [Arbutin] | – | – | – | – | – | – | 0 | 0 | 0 | 0 | 0 | 0
Cc1ccccc1OCC(O)CO (stereo not drawn) [Mephenesin] | 0 | 0 | 0 | 0 | 0 | 0 | – | – | – | – | – | –
COc1cc(NS(=O)(=O)c2ccc(N)cc2)nc(OC)n1 [Sulfadimethoxine] | 0 | 0 | 0 | 0 | 0 | 0 | – | – | – | – | – | –
Brc1c(NC2=NCCN2)ccc2nccnc12 [Brimonidine] | 0 | 0 | 0 | 0 | 0 | 0 | – | – | – | – | – | –
NC(=O)C[S+]([O-])C(c1ccccc1)c1ccccc1 (stereo not drawn) [Modafinil] | – | – | – | – | – | – | 0 | 0 | 0 | 0 | 0 | 0
CN1C(=O)CCS(=O)(=O)C1c1ccc(Cl)cc1 (stereo not drawn) [Chlormezanone] | – | – | – | – | – | – | 0 | 0 | 0 | 0 | 0 | 0
CCC1(c2ccccc2)C(=O)NCNC1=O [Primidone] | 0 | 0 | 0 | 0 | 0 | 0 | – | – | – | – | – | –
CC(=O)Nc1ccccc1 [Acetanilide] | 0 | 0 | 0 | 0 | 0 | 0 | – | – | – | – | – | –
NC(=O)c1ccccc1O [Salicylamide] | 0 | 0 | 0 | 0 | 0 | 0 | – | – | – | – | – | –
COC(=O)[C@H](Cc1ccccc1)NC(=O)[C@@H](N)CC(=O)O [Aspartame] (H-Asp-Phe-OMe) | – | – | – | – | – | – | 0 | 0 | 0 | 0 | 0 | 0
COP(=S)(OC)Oc1ccc(SC)c(C)c1 [Fenthion] | – | – | – | – | – | – | 0 | 0 | 0 | 0 | 0 | 0
CCN(CC)CCNC(=O)c1cc(Br)c(N)cc1OC [Bromopride] | 0 | 0 | 0 | 0 | 0 | 0 | – | – | – | – | – | –
O=C(O)COc1ccccc1 [Phenoxyacetic acid] | – | – | – | – | – | – | 0 | 0 | 0 | 0 | 0 | 0
CCCC(=O)Nc1ccc(OCC(O)CNC(C)C)c(C(C)=O)c1 (stereo not drawn) [Acebutolol hydrochloride] | 0 | 0 | 0 | 0 | 0 | 0 | – | – | – | – | – | –
Cc1scc2c1N(C(=O)CN1CCN(C)CC1)c1ccccc1NC2=O [Telenzepine] | 0 | 0 | 0 | 0 | 0 | 0 | – | – | – | – | – | –
Cc1oncc1C(=O)Nc1ccc(C(F)(F)F)cc1 [Leflunomide] | 0 | 0 | 0 | 0 | 0 | 0 | – | – | – | – | – | –
Nc1ccc(C(=O)O)cc1 [4-Aminobenzoic acid] | 0 | 0 | 0 | 0 | 0 | 0 | – | – | – | – | – | –
CC[C@]12CCCN3CCc4c(n(c5ccccc45)[C@@](O)(C(=O)OC)C1)[C@@H]32 [Vincamine] | – | – | – | – | – | – | 0 | 0 | 0 | 0 | 0 | 0
CC(C)(Oc1ccc(Cl)cc1)C(=O)O [Clofibric acid] | 0 | 0 | 0 | 0 | 0 | 0 | – | – | – | – | – | –
CCC1(C2=NCCN2)Cc2ccccc2O1 (stereo not drawn) [Efaroxan] | – | – | – | – | – | – | 0 | 0 | 0 | 0 | 0 | 0
CC(=O)CCCCn1c(=O)c2c(ncn2C)n(C)c1=O [Pentoxifylline] | 0 | 0 | 0 | 0 | 0 | 0 | – | – | – | – | – | –
CN1C(=O)CC(c2ccccc2)C1=O (stereo not drawn) [Phensuximide] | 0 | 0 | 0 | 0 | 0 | 0 | – | – | – | – | – | –
O=C(c1ccccc1)c1ccc2n1CCC2C(=O)O (stereo not drawn) [Ketorolac] | 0 | 0 | 0 | 0 | 0 | 0 | – | – | – | – | – | –
CCC(=O)O[C@]1(C(=O)SCF)[C@H](C)C[C@H]2[C@@H]3C[C@H](F)C4=CC(=O)C=C[C@]4(C)[C@@]3(F)[C@@H](O)C[C@@]21C [Fluticasone propionate] | 0 | 0.67 | 0 | 0 | 0 | 0 | – | – | – | – | – | –
O=C(CCBr)N1CCN(C(=O)CCBr)CC1 [Pipobroman] | 0 | 0 | 0 | 0 | 0 | 0 | – | – | – | – | – | –
NC(=O)NC(=O)Cc1ccccc1 [Phenacemide] | – | – | – | – | – | – | 0 | 0 | 0 | 0 | 0 | 0
